Experimental data taken from patent US9017643B2, “Particles comprising a releasable dopant therein” (Australian Nuclear Science and Technology Organisation, priority 2005, dated 2015).
Each block holds one molecule with its values, some of them ahead of it.

What was measured:
[1] = Release into sodium hydroxide solution at pH=12; type: physicochemical; details: Example 3, after 27 days, both samples (phenylsiloxane and vinylsiloxane)
Protocol: The rate of release of diuron into sodium hydroxide solution at pH=12 was measured over a period of one month. Analysing the extent of release is somewhat problematic due to the low solubility of diuron in water. In order to determine the release characteristics, diuron-doped particles (about […]) were suspended in NaOH solution (0.01 mol dm^−3, 50 mL) and stirred. At one-week intervals, the solution was centrifuged and the supernatant removed. The diuron-doped particles were then resuspended in a fresh solution of NaOH (0.01 mol dm^−3, 50 mL) and stirred. The removed supernatant was shaken with octanol (10 mL) in a separating flask to extract dissolved diuron. This was repeated twice, and the resulting approximately 30 mL organic fraction was reserved for diuron analysis by HPLC. The amount of diuron released after 27 days was about 5% (of the total encapsulated) for both samples. The amount released was less than expected compared with the dissolution results at pH=12. This could reflect an incomplete extraction of diuron from the aqueous phase during the process of shaking with octanol.

Release into ethanol = type: physicochemical; details: for Encapsulated dye released: ethanol
Protocol: (§1) The sample was suspended in 50/50 v/v ethanol/water (10 mL) with stirring. At each time point, the sample was centrifuged (10,000 rpm, 10 minutes) and the supernatant removed. Fresh solvent was then added and the solid resuspended. In comparison, the release of dye from a similar sample into 100% ethanol solution is very rapid, with about 40% of the dye released after several minutes.
(§2) The sample was suspended in 50/50 v/v ethanol/water (10 mL) with stirring. At each time point, the sample was centrifuged (10,000 rpm, 10 minutes) and the supernatant removed. Fresh solvent was then added and the solid resuspended. In contrast to the slow release into ethanol/water, the release into ethanol is very rapid, with approximately 70% of the encapsulated dye released within one hour.
The samples (53.5 and 49.2 mg respectively) were suspended in ethanol (100 mL) with stirring. At each time point, 1.5 mL was extracted from both samples and centrifuged to isolate the solid, which was then returned to the solution with 1 mL of fresh ethanol. The extracted 1.5 mL was analysed by UV/Vis (absorbance at 536 nm), to determine the concentration of sudan red dye released into the supernatant. The second sample released dye more quickly than the first, but by 100 minutes, both samples had released >90% of the encapsulated sudan red dye.

[2] = Release into 50/50 v/v ethanol/water; type: physicochemical; details: phenylsiloxane particles
Protocol: Release of retinol from the particles into 50:50 (v/v) ethanol:water solution was measured over a period of 11 days. Due to decomposition of retinol released into the solution, the supernatant was refreshed at each time point, and the release measured using UV/Vis spectroscopy (peak at 325 nm). Approximately 11% of the encapsulated retinol was released after one day, followed by slower release thereafter.
as §1, §2

[3] = Integrity of retinol after encapsulation (UV/Visible spectra, leaching into ethanol); type: physicochemical
Text: The UV/Visible spectra of the both retinol-doped and undoped phenylsiloxane particles dispersed in PTFE powder (10 wt %), were collected using a diffuse reflectance accessory. […] The bandshift from 325 nm in ethanol solution to 335 nm in the solid is due to difference of environment experienced by the retinol molecule. […] This is likely to be due to exposure to low pH (=1.0) during the hydrolysis of TMOS.

[4] = silica shell capsules loaded by post impregnation; after four hours; cited from earlier work

Molecule: CN(C)C(=O)Nc1ccc(Cl)c(Cl)c1 [diuron]
Amount released (of the total encapsulated) [1]: about 5%

Molecule: CCCCNc1ccc(NCCCC)c2c1C(=O)c1ccccc1C2=O [Solvent blue 35]
Dye released (Release into ethanol; similar sample to Example 5, 100% ethanol, after several minutes): about 40%

Molecule: C1=Cc2nc1c(-c1ccccc1)c1ccc([nH]1)c(-c1ccccc1)c1nc(c(-c3ccccc3)c3ccc([nH]3)c2-c2ccccc2)C=C1 [tetraphenyl porphyrin]
Porphyrin leached from the particles [4]: 60%

Second part, led by results:

Encapsulated dye released (Release into ethanol; Example 6, phenylsiloxane particles, within one hour): approximately 70%
Encapsulated dye released (Release into ethanol; Example 7, vinylsiloxane particles, by 100 minutes, both samples): > 90%
Release (in words) ([2]; Example 6, 50/50 v/v ethanol/water): slow release
Molecule: Sudan red

Weight removed from the solid on leaching in ethanol (Release into ethanol; 15 ml limonene: 30 ml PTMS, HPLC): about 3%
Molecule: C=C(C)[C@H]1CC=C(C)CC1 [limonene]

Integrity after encapsulation ([3]; silica particles made by double emulsion process with TMOS, no peak at 325 nm): has been degraded
Encapsulated dopant released ([2]; Example 1, 50:50 (v/v) ethanol:water, after one day): Approximately 11%
Molecule: CC1=C(/C=C/C(C)=C/C=C/C(C)=C/CO)C(C)(C)CCC1 [retinol]
Integrity after encapsulation ([3]; phenylsiloxane particles, absorption peak at 325 nm on release into ethanol): has not been damaged
